Experimental findings from ChEMBL document CHEMBL5055657, “Effect of phenylurea hydroxamic acids on histone deacetylase and VEGFR-2” (Bioorg Med Chem, 2021) are described below.

One may read the IC50 as the concentration that inhibits the measured activity by half. Usually GI50 stands for the concentration that inhibits growth by half.

One assay relates to SK-HEP1. In words: cells. In kind it is functional, cell-based. The following applies: Homo sapiens, SK-HEP1, 48 h.
A short description of another assay: cells. The following applies: Homo sapiens, Endothelial progenitor cell; time 48 hrs. In kind it is functional.
Another assay has as its system A549. In words: cells. In kind it is functional, cell-based. The following applies: Homo sapiens, A549, 48 h.
For the next assay, the system named is PC-3. Put plainly: cells. In kind it is functional, cell-based. The following applies: Homo sapiens, PC-3, 48 h.
The target of assay [1] is T1, Protein deacetylase HDAC6 (Homo sapiens, UniProt Q9UBN7).
T1 sequence (Q9UBN7 whole entry): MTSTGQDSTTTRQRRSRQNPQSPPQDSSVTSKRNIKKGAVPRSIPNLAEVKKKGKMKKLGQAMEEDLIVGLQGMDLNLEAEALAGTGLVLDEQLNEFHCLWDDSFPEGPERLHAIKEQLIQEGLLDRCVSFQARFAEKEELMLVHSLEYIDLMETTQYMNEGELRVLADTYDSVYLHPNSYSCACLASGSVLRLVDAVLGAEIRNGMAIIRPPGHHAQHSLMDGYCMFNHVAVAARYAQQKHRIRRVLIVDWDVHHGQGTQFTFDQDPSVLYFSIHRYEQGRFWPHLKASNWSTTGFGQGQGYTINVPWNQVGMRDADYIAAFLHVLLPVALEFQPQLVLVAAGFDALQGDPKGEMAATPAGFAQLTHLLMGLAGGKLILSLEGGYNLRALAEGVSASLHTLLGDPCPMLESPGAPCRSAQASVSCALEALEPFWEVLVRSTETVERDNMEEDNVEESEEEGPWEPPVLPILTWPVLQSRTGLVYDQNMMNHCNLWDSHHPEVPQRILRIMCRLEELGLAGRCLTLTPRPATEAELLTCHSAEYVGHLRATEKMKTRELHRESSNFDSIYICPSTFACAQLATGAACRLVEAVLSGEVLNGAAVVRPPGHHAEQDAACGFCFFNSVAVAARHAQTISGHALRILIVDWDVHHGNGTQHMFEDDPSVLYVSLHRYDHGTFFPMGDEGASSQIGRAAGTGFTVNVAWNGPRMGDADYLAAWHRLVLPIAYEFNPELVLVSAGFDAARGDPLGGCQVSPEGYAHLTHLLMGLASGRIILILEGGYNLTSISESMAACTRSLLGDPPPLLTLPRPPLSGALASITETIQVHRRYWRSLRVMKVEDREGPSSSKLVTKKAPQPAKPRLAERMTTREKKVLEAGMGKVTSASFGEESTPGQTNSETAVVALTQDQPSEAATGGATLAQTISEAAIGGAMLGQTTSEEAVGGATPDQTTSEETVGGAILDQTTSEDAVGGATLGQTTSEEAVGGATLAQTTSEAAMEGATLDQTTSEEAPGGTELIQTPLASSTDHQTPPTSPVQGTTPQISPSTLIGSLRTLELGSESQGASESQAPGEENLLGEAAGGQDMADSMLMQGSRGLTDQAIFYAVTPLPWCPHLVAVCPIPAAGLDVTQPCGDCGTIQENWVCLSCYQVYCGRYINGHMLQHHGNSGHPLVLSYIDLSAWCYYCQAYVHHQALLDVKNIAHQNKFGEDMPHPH
In words: Inhibition of full length recombinant N-terminal GST-tagged human HDAC6 expressed in baculovirus infected Sf9 insect cells using RHK-K(Ac)-AMC as substrate measured after 90 mins by fluorescence plate reader assay.

Assay [2] deals with T2, Vascular endothelial growth factor receptor 2 (Homo sapiens, UniProt P35968).
T2 sequence (P35968 whole entry): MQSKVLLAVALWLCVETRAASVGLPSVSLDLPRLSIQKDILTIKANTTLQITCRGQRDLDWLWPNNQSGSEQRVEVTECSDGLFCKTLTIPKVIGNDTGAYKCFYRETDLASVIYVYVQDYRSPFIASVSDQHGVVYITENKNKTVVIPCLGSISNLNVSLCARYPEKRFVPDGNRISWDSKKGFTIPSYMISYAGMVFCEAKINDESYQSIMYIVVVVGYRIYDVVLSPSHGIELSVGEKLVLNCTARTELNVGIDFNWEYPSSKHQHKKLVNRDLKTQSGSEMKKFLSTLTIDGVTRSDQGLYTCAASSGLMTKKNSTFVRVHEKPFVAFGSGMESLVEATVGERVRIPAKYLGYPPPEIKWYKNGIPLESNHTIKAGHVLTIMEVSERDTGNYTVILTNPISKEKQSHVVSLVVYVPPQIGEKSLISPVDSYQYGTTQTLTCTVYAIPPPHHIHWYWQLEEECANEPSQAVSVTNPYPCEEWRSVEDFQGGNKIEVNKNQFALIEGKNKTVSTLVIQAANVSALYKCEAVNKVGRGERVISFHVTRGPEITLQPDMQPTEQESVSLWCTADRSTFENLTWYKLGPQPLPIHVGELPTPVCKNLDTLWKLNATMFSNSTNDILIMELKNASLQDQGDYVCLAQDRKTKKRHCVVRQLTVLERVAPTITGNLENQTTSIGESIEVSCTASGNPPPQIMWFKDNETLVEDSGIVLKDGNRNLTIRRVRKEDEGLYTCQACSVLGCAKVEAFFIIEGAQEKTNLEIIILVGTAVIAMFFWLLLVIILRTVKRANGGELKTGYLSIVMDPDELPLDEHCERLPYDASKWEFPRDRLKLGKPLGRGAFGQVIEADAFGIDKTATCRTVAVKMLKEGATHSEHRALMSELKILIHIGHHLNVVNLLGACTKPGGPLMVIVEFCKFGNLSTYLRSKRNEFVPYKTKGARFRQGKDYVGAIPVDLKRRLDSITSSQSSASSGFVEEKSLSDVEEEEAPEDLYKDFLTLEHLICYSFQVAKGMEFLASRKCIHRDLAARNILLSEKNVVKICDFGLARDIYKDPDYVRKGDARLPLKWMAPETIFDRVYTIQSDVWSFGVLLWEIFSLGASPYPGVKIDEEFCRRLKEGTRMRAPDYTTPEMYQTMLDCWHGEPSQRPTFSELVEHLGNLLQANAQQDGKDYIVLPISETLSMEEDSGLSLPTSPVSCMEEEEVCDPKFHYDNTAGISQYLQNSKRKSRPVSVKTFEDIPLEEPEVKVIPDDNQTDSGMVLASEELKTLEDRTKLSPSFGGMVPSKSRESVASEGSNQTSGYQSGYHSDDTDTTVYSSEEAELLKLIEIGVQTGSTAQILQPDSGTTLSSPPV
Assay [3] concerns the target T3, Histone deacetylase (Homo sapiens) (UniProt Q13547+O15379+Q9UBN7+Q92769+Q9UQL6+Q8WUI4+Q9BY41+Q96DB2+P56524+Q9UKV0+Q969S8). In words: Inhibition of HDAC in human PC-3 cells assessed as increase in acetylated histone H3 level measured after 24 hrs by Western blot analysis. In kind it is cell-based. The following applies: dose 5-10 µM. In general terms: A western blot detects proteins with antibodies after separation by electrophoresis.

The species entered for assay [4] is Homo sapiens. In words: Selectivity ratio of IC50 for recombinant C-terminal His-fusion tagged/N-terminal Strep2 tagged human HDAC8 (1 to 377 residues) expressed in insect cells to IC50 full length recombinant N-terminal GST-tagged human HDAC6 expressed in baculovirus infected Sf9 insect cells.
The species named for assay [5] is Homo sapiens. In words: Selectivity ratio of IC50 for full length recombinant C-terminal FLAG/His-tagged human HDAC1 expressed in baculovirus infected Sf21 insect cells to IC50 for full length recombinant N-terminal GST-tagged human HDAC6 expressed in baculovirus infected Sf9 insect cells.
Assay [6] deals with T3, Histone deacetylase (Homo sapiens). Put plainly: Inhibition of HDAC in human SK-HEP1 cells assessed as increase in acetylated histone H3 level measured after 24 hrs by Western blot analysis. In kind it is cell-based. The following applies: dose 5-10 µM.
The target of a further assay is T4, Histone deacetylase 8 (Homo sapiens, UniProt Q9BY41).
T4 sequence (Q9BY41 whole entry): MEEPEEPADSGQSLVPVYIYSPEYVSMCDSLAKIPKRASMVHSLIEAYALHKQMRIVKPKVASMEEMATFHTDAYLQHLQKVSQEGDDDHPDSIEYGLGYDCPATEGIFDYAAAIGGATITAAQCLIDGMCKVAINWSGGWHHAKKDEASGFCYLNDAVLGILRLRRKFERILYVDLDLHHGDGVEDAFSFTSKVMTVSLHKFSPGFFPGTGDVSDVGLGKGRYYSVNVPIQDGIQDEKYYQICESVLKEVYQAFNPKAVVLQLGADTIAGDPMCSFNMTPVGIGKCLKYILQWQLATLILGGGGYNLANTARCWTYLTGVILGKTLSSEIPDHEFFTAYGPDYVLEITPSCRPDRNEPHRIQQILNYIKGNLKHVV
In words: Inhibition of recombinant C-terminal His-fusion tagged/N-terminal Strep2 tagged human HDAC8 (1 to 377 residues) expressed in insect cells using RHK-K(Ac)-K(Ac)-AMC as substrate measured after 60 mins by fluorescence plate reader assay.

The target of assay [7] is T3, Histone deacetylase (Homo sapiens). In words: Inhibition of HDAC in human A549 cells assessed as increase in acetylated histone H3 level measured after 24 hrs by Western blot analysis. The following applies: dose 5-10 µM. In kind it is cell-based.
The test system of assay [8] is Endothelial progenitor cell. In words: Antiangiogenesis activity in human Endothelial progenitor cells assessed as retarded capillary like tube formation measured for 24 hrs by microscopic analysis. In kind it is functional, tissue-based. The following applies: dose 5-10 µM.
The target in assay [9] is T3, Histone deacetylase (Homo sapiens). In words: Inhibition of HDAC in human PC-3 cells assessed as increase in acetylated alpha tubulin level measured after 24 hrs by Western blot analysis. In kind it is cell-based. The following applies: dose 5-10 µM.
For the next assay, the target named is Histone deacetylase 1 (Homo sapiens, UniProt Q13547). Put plainly: Inhibition of full length recombinant C-terminal FLAG/His-tagged human HDAC1 expressed in baculovirus infected Sf21 insect cells using RHK-K(Ac)-AMC as substrate measured after 60 mins by fluorescence plate reader assay.
Histone deacetylase 1, sequence (Q13547 whole entry): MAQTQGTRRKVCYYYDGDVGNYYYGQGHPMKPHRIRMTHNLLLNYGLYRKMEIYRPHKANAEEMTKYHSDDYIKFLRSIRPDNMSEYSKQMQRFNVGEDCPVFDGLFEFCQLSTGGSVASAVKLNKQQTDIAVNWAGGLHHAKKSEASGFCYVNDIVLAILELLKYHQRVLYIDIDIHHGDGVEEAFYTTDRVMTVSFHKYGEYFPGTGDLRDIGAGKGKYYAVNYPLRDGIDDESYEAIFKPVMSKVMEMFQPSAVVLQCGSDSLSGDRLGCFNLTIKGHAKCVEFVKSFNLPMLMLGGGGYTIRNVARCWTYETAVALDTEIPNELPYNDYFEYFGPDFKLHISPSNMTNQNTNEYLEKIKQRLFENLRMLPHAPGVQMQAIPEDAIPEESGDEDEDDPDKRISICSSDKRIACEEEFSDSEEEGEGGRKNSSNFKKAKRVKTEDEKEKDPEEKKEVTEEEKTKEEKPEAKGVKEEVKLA
Assay [10] concerns the target T2, Vascular endothelial growth factor receptor 2. Put plainly: Inhibition of VEGFR2 phosphorylation in human Endothelial progenitor cells at 5 to 10 uM measured after 10 mins by Western blot analysis. In kind it is tissue-based. The following applies: Endothelial progenitor cell, dose 5-10 µM.
Assay [11] concerns the target T3, Histone deacetylase (Homo sapiens). In words: Inhibition of HDAC in human A549 cells assessed as increase in acetylated alpha tubulin level measured after 24 hrs by Western blot analysis. In kind it is cell-based. The following applies: dose 5-10 µM.
Assay [12] is filed under the species Homo sapiens. Put plainly: Selectivity ratio of IC50 for full length recombinant C-terminal GST-fusion-tagged human HDAC2 to IC50 for full length recombinant N-terminal GST-tagged human HDAC6 expressed in baculovirus infected Sf9 insect cells.
Assay [13] concerns the target T3, Histone deacetylase (Homo sapiens). In words: Inhibition of HDAC in human SK-HEP1 cells assessed as increase in acetylated alpha tubulin level measured after 24 hrs by Western blot analysis. In kind it is cell-based. The following applies: dose 5-10 µM.
A further assay has as its target Histone deacetylase 2 (Homo sapiens, UniProt Q92769). In words: Inhibition of full length recombinant C-terminal GST-fusion-tagged human HDAC2 expressed in insect cells using RHK-K(Ac)-AMC as substrate measured after 60 mins by fluorescence plate reader assay.

Histone deacetylase 2, sequence (Q92769 whole entry, the tested form may be a part): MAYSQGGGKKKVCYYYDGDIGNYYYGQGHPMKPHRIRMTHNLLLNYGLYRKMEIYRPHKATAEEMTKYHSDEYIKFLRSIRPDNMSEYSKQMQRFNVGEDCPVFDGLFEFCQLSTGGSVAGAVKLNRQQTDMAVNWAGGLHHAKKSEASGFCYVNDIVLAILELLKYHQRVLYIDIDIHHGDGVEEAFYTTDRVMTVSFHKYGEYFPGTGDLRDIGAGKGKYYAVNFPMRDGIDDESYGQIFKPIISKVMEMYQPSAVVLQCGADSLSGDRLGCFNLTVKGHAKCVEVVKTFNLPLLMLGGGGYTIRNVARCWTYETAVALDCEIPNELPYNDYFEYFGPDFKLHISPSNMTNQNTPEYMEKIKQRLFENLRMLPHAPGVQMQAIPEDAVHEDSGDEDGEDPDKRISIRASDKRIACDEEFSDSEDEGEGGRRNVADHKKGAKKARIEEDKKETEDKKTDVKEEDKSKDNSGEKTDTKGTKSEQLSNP

As for `O=C(Nc1ccc2c(c1)CCN2Cc1ccc(C(=O)NO)cc1)Nc1ccc(Cl)c(C(F)(F)F)c1`, the figures for the IC50 with SK-HEP1, with A549 and in the assay with PC-3 were 4.6 µM, 3.1 µM and 3.4 µM, respectively. This compound displayed a GI50 in “cells” of 1.6 µM.

`CNC(=O)c1cc(Oc2ccc(NC(=O)Nc3ccc(Cl)c(C(F)(F)F)c3)cc2)ccn1` [SORAFENIB]: the IC50 is 7.3 µM with SK-HEP1, 5 µM with A549 and 6.3 µM in the assay on PC-3. Further, the GI50 in the assay “cells” is 5 µM.

For the compound `O=C(/C=C/c1ccc(CN2CCc3cc(NC(=O)Nc4ccc(Cl)c(C(F)(F)F)c4)ccc32)cc1)NO`, the IC50 in the assay with SK-HEP1 came out at 3.5 µM; in [1], 1.14 µM; in the assay with A549, 2.7 µM; with PC-3 it was 2.3 µM. Further, it took 1.2 µM to inhibit growth in the assay “cells” by half (GI50).

Turning to `O=C(CCCC(=O)Nc1ccc(NC(=O)Nc2ccc(Cl)c(C(F)(F)F)c2)cc1)NO`, the IC50 in the assay on SK-HEP1, in the assay on A549 and in the assay on PC-3 was greater than 10 µM each time. The compound also showed a 50% growth inhibitory concentration (GI50) in “cells” greater than 10 µM.

Regarding `O=C(Nc1ccc2c(c1)CCCN2c1ccc(C(=O)NO)cc1)Nc1ccc(Cl)c(C(F)(F)F)c1`, the IC50 in the assay on SK-HEP1 is 3.4 µM; in assay [2], 13.2 µM; in assay [1], 1.2 µM; in the assay with A549 it was 2.9 µM; in the assay on PC-3, 3 µM. Further, in “cells”, the GI50 amounted to 1 µM.

Regarding `O=C(Nc1ccc(Nc2ncc(C(=O)NO)cn2)cc1)Nc1ccc(Cl)c(C(F)(F)F)c1`, the IC50 in the assay on SK-HEP1, in the assay on A549 and in the assay on PC-3 was greater than 10 µM in each case. Moreover, it took 5.8 µM to inhibit growth in the assay “cells” by half (GI50).

As for `O=C(Nc1ccc(C(=O)NO)cc1)Nc1ccc(Cl)c(C(F)(F)F)c1`, the values for the IC50 with SK-HEP1, in the assay with A549 and in the assay on PC-3 were 3.8 µM, 7.2 µM and 3.1 µM, respectively. Growth in “cells” was halved (GI50) at 1.3 µM.

On to `O=C(/C=C/c1ccc(NC(=O)Nc2ccc(Cl)c(C(F)(F)F)c2)cc1)NO`, for which the IC50 in the assay with SK-HEP1 stood at 3.2 µM; in assay [2], 13.2 µM; in [1] it was 0.166 µM; on Histone deacetylase 8, 1.99 µM; at Histone deacetylase 1, 7.23 µM; with A549 it was 3.4 µM. In addition, the IC50 in the assay with PC-3 was 1.9 µM; on Histone deacetylase 2 it was greater than 10 µM. The inhibition entry in assay [3], in assay [6], in assay [7], in assay [9], in assay [10] and in [11] was “Dose-dependent effect” each time. The inhibition result in [13] is “Dose-dependent effect”. Besides, the Ratio IC50 in the assay listed under Homo sapiens [4] is 12; in the assay listed under Homo sapiens [5] it was 43.6; in the assay filed under Homo sapiens [12], greater than 60.2. For the same compound, in “cells”, the GI50 was found to be 1 µM. Also, the Activity entry in assay [8] was “Dose-dependent effect”.

For the compound `O=C(CCCCCC(=O)Nc1ccc(NC(=O)Nc2ccc(Cl)c(C(F)(F)F)c2)cc1)NO`, the IC50 in the assay with SK-HEP1, in the assay on A549 and in the assay on PC-3 was greater than 10 µM each time. In the assay “cells”, this compound returned a GI50 greater than 10 µM.

Regarding `O=C(Nc1ccc2c(c1)CCCN2Cc1ccc(C(=O)NO)cc1)Nc1ccc(Cl)c(C(F)(F)F)c1`, the results for the IC50 in the assay on SK-HEP1, in the assay on A549 and in the assay on PC-3 were 4.5 µM, 3 µM and 3.2 µM, respectively. The compound also gave a GI50 in “cells” of 1.4 µM.

In the case of `O=C(Nc1ccc(NCc2ccc(C(=O)NO)cc2)cc1)Nc1ccc(Cl)c(C(F)(F)F)c1`, the results for the IC50 with SK-HEP1, with A549 and in the assay with PC-3 were 7.2 µM, 4.3 µM and 3.8 µM, respectively. In the assay “cells”, this compound returned a GI50 of 2.8 µM.

Consider `O=C(Nc1ccc2c(c1)CCN2c1ccc(C(=O)NO)cc1)Nc1ccc(Cl)c(C(F)(F)F)c1`, for which the IC50 in the assay with SK-HEP1 was found to be 4.1 µM; in assay [1] it was 0.825 µM; with A549, 3.4 µM; in the assay with PC-3 it was 3.8 µM. In addition, in “cells”, the GI50 stood at 2 µM.

As to `O=C(CCCCCCC(=O)Nc1ccc(NC(=O)Nc2ccc(Cl)c(C(F)(F)F)c2)cc1)NO`, the figures for the IC50 with SK-HEP1, in the assay on A549 and in the assay with PC-3 were 8.1 µM, 9.5 µM and 4.6 µM, respectively. Further, in the assay “cells”, the GI50 was found to be 4.5 µM.

`O=C(CCCCC(=O)Nc1ccc(NC(=O)Nc2ccc(Cl)c(C(F)(F)F)c2)cc1)NO`: the IC50 in the assay on SK-HEP1, with A549 and in the assay on PC-3 was greater than 10 µM each time. In “cells”, the GI50 is greater than 10 µM.

Take `O=C(Nc1ccc2c(c1)N(Cc1ccc(C(=O)NO)cc1)CC2)Nc1ccc(Cl)c(C(F)(F)F)c1`: the IC50 amounted to 4.5 µM in the assay with SK-HEP1; 0.251 µM in assay [1]; 1.71 µM at Histone deacetylase 8; 2.8 µM in the assay with A549; 3.1 µM in the assay with PC-3. For the same compound, the inhibition entry in assay [3], in [6], in assay [7], in assay [9], in assay [11] and in [13] was “Dose-dependent effect” in each case. In addition, in the assay filed under Homo sapiens [4], the Ratio IC50 is 6.8. Growth in “cells” was halved (GI50) at 1.4 µM.
